How the values were obtained:
Format in all cases: in vivo
flixweed = assay: wheat field resistant broadleaf weed control, greenhouse spray at 4 leaf stage; set-up: key: Level 10: completely dead; Level 9: above 95% growth control rate; Level 8: above 90% growth control rate; Level 7: above 80% growth control rate; Level 6: above 70% growth control rate; Level 5: above 60% growth control rate; Level 4: above 50% growth control rate; Level 3: above 20% growth control rate; Level 2: 5%-20% growth control rate; Level 1: below 5% growth control rate; details: 250 g/ha of the active substance; 4 weeks after treatment; ALS inhibitor resistant
Summary of the method: (§1)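 Seeds sown in soil-filled pots, covered 0.5-2 cm, greenhouse-grown; sprayed at 4 leaf stage (2-3 wk); acetone/methyl oleate emulsion/water formulation; 4 wk greenhouse; fresh wt control rate.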

corn gromwell = assay: as above; set-up: key: Level 10: completely dead; Level 9: above 95% growth control rate; Level 8: above 90% growth control rate; Level 7: above 80% growth control rate; Level 6: above 70% growth control rate; Level 5: above 60% growth control rate; Level 4: above 50% growth control rate; Level 3: above 20% growth control rate; Level 2: 5%-20% growth control rate; Level 1: below 5% growth control rate; details: 250 g/ha of the active substance; 4 weeks after treatment; ALS inhibitor resistant
Summary of the method: as §1

chickweed = assay: as above; set-up: key: Level 10: completely dead; Level 9: above 95% growth control rate; Level 8: above 90% growth control rate; Level 7: above 80% growth control rate; Level 6: above 70% growth control rate; Level 5: above 60% growth control rate; Level 4: above 50% growth control rate; Level 3: above 20% growth control rate; Level 2: 5%-20% growth control rate; Level 1: below 5% growth control rate; details: 250 g/ha of the active substance; 4 weeks after treatment; ALS inhibitor resistant
Summary of the method: as §1

shepherd's purse = assay: as above; set-up: key: Level 10: completely dead; Level 9: above 95% growth control rate; Level 8: above 90% growth control rate; Level 7: above 80% growth control rate; Level 6: above 70% growth control rate; Level 5: above 60% growth control rate; Level 4: above 50% growth control rate; Level 3: above 20% growth control rate; Level 2: 5%-20% growth control rate; Level 1: below 5% growth control rate; details: 250 g/ha of the active substance; 4 weeks after treatment; ALS inhibitor resistant
Summary of the method: as §1

wheat [1] = assay: wheat field test, crop selectivity, greenhouse spray at 4 leaf stage; details: 250 g/ha of the active substance; 4 weeks after treatment
Summary of the method: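 Compounds in acetone were mixed with methyl oleate emulsion, diluted with water and applied with a sprayer to greenhouse plants at the 4 leaf stage. Growth control, expressed as fresh weight control rate, was assessed after 4 weeks of further culture.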

foxtail = assay: weed control effect in post-emergence stage (Table 1); set-up: key: Level 10: completely dead; Level 9: above 95% growth control rate; Level 8: above 90% growth control rate; Level 7: above 80% growth control rate; Level 6: above 70% growth control rate; Level 5: above 60% growth control rate; Level 4: above 50% growth control rate; Level 3: above 20% growth control rate; Level 2: 5%-20% growth control rate; Level 1: below 5% growth control rate; details: post-emergence spray at 4-5 leaf stage, 250 g/ha active ingredient with 450 kg/ha water, rated after 3 weeks in greenhouse
Summary of the method: (§2)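 Read-out is growth control rate based on fresh weight, determined 3 weeks after treatment. Plants raised from seed in potted soil (0.5-2 cm cover) in greenhouse were sprayed 2-3 weeks post-sowing at 4-5 leaves with acetone/Tween 80 aqueous compound solutions.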

crab grass = assay: as above; set-up: key: Level 10: completely dead; Level 9: above 95% growth control rate; Level 8: above 90% growth control rate; Level 7: above 80% growth control rate; Level 6: above 70% growth control rate; Level 5: above 60% growth control rate; Level 4: above 50% growth control rate; Level 3: above 20% growth control rate; Level 2: 5%-20% growth control rate; Level 1: below 5% growth control rate; details: post-emergence spray at 4-5 leaf stage, 250 g/ha active ingredient with 450 kg/ha water, rated after 3 weeks in greenhouse
Summary of the method: as §2

echinochloa = assay: as above; set-up: key: Level 10: completely dead; Level 9: above 95% growth control rate; Level 8: above 90% growth control rate; Level 7: above 80% growth control rate; Level 6: above 70% growth control rate; Level 5: above 60% growth control rate; Level 4: above 50% growth control rate; Level 3: above 20% growth control rate; Level 2: 5%-20% growth control rate; Level 1: below 5% growth control rate; details: post-emergence spray at 4-5 leaf stage, 250 g/ha active ingredient with 450 kg/ha water, rated after 3 weeks in greenhouse
Summary of the method: as §2

rorippa indica = assay: as above; set-up: key: Level 10: completely dead; Level 9: above 95% growth control rate; Level 8: above 90% growth control rate; Level 7: above 80% growth control rate; Level 6: above 70% growth control rate; Level 5: above 60% growth control rate; Level 4: above 50% growth control rate; Level 3: above 20% growth control rate; Level 2: 5%-20% growth control rate; Level 1: below 5% growth control rate; details: post-emergence spray at 4-5 leaf stage, 250 g/ha active ingredient with 450 kg/ha water, rated after 3 weeks in greenhouse
Summary of the method: as §2

Indian mallow = assay: as above; set-up: key: Level 10: completely dead; Level 9: above 95% growth control rate; Level 8: above 90% growth control rate; Level 7: above 80% growth control rate; Level 6: above 70% growth control rate; Level 5: above 60% growth control rate; Level 4: above 50% growth control rate; Level 3: above 20% growth control rate; Level 2: 5%-20% growth control rate; Level 1: below 5% growth control rate; details: post-emergence spray at 4-5 leaf stage, 250 g/ha active ingredient with 450 kg/ha water, rated after 3 weeks in greenhouse
Summary of the method: as §2

bidens bipinnata = assay: as above; set-up: key: Level 10: completely dead; Level 9: above 95% growth control rate; Level 8: above 90% growth control rate; Level 7: above 80% growth control rate; Level 6: above 70% growth control rate; Level 5: above 60% growth control rate; Level 4: above 50% growth control rate; Level 3: above 20% growth control rate; Level 2: 5%-20% growth control rate; Level 1: below 5% growth control rate; details: post-emergence spray at 4-5 leaf stage, 250 g/ha active ingredient with 450 kg/ha water, rated after 3 weeks in greenhouse
Summary of the method: as §2

corn = assay: post-emergence stage experiment, crop (Table 1); details: post-emergence spray at 4-5 leaf stage, 250 g/ha active ingredient with 450 kg/ha water, rated after 3 weeks in greenhouse
Summary of the method: as §2

wheat [2] = assay: post-emergence stage experiment, crop (Table 1); details: post-emergence spray at 4-5 leaf stage, 250 g/ha active ingredient with 450 kg/ha water, rated after 3 weeks in greenhouse
Summary of the method: as §2

rice = assay: post-emergence stage experiment, crop (Table 1); set-up: key: Level 10: completely dead; Level 9: above 95% growth control rate; Level 8: above 90% growth control rate; Level 7: above 80% growth control rate; Level 6: above 70% growth control rate; Level 5: above 60% growth control rate; Level 4: above 50% growth control rate; Level 3: above 20% growth control rate; Level 2: 5%-20% growth control rate; Level 1: below 5% growth control rate; details: post-emergence spray at 4-5 leaf stage, 250 g/ha active ingredient with 450 kg/ha water, rated after 3 weeks in greenhouse
Summary of the method: as §2

| SMILES | flixweed weed controlling effect (activity level) (flixweed) | corn gromwell weed controlling effect (activity level) (corn gromwell) | chickweed weed controlling effect (activity level) (chickweed) | shepherd's purse weed controlling effect (activity level) (shepherd's purse) | Wheat (activity level, crop damage) (wheat [1]) | weed control effect, Green foxtail (level) (foxtail) | weed control effect, Crab grass (level) (crab grass) | weed control effect, Echinochloa (level) (echinochloa) | weed control effect, Rorippa indica (level) (rorippa indica) | weed control effect, Indian mallow (level) (Indian mallow) | weed control effect, Bidens bipinnata (level) (bidens bipinnata) | effect on crop, Corn (level) (corn) | effect on crop, Wheat (level) (wheat [2]) | effect on crop, Rice (level) (rice) |
| --- | --- | --- | --- | --- | --- | --- | --- | --- | --- | --- | --- | --- | --- | --- |
| Cc1nn(C)cc1C(=O)Oc1c(C(=O)c2ccc(C(F)(F)F)c(N3CCCCCC3=O)c2Cl)cnn1C [Compound 052] | 10 | 10 | 10 | 10 | 0 | 1 (Level 1: below 5% growth control rate) | 4 (Level 4: above 50% growth control rate) | 5 (Level 5: above 60% growth control rate) | 10 | 10 | 1 (Level 1: below 5% growth control rate) | 1 (Level 1: below 5% growth control rate) | 0 | 1 (Level 1: below 5% growth control rate) |
| CCc1nn(C)c(OC(=O)c2cn(C)nc2C)c1C(=O)c1ccc(C(F)(F)F)c(-n2cccn2)c1Cl [Compound 131] | 10 | 10 | 10 | 10 | 0 | 10 | 3 (Level 3: above 20% growth control rate) | 10 | 10 | 10 | 10 | 4 (Level 4: above 50% growth control rate) | 0 | 10 |
| CCc1nn(C)c(OC(=O)c2cn(C)nc2C)c1C(=O)c1ccc(C(F)(F)F)c(-n2cc(C)cn2)c1Cl [Compound 141] | 10 | 10 | 10 | 10 | 1 (Level 1: below 5% growth control rate) | 7 (Level 7: above 80% growth control rate) | 3 (Level 3: above 20% growth control rate) | 9 (Level 9: above 95% growth control rate) | 10 | 9 (Level 9: above 95% growth control rate) | 7 (Level 7: above 80% growth control rate) | 0 | 1 (Level 1: below 5% growth control rate) | 10 |
| CCc1nn(C)c(O)c1C(=O)c1ccc(C(F)(F)F)c(N2CCCCCC2=O)c1Cl [Compound 120] | 10 | 10 | 10 | 10 | 1 (Level 1: below 5% growth control rate) | 7 (Level 7: above 80% growth control rate) | 1 (Level 1: below 5% growth control rate) | 10 | 10 | 4 (Level 4: above 50% growth control rate) | 4 (Level 4: above 50% growth control rate) | 1 (Level 1: below 5% growth control rate) | 1 (Level 1: below 5% growth control rate) | 5 (Level 5: above 60% growth control rate) |
| Cn1cc(C(=O)Oc2c(C(=O)c3ccc(C(F)(F)F)c(N4CCCC4=O)c3Cl)c(C3CC3)nn2C)cn1 [Compound 028] | 10 | 10 | 10 | 10 | 0 | 1 (Level 1: below 5% growth control rate) | 4 (Level 4: above 50% growth control rate) | 5 (Level 5: above 60% growth control rate) | 10 | 10 | 7 (Level 7: above 80% growth control rate) | 1 (Level 1: below 5% growth control rate) | 0 | 1 (Level 1: below 5% growth control rate) |
| CCOc1c(C(=O)Oc2c(C(=O)c3ccc(C(F)(F)F)c(N4CCCCCC4=O)c3Cl)cnn2C)cnn1C [Compound 051] | 10 | 10 | 10 | 10 | 0 | 0 | 5 (Level 5: above 60% growth control rate) | 6 (Level 6: above 70% growth control rate) | 10 | 10 | 2 (Level 2: 5%-20% growth control rate) | 2 (Level 2: 5%-20% growth control rate) | 0 | 1 (Level 1: below 5% growth control rate) |
| Cc1nn(C)cc1C(=O)Oc1c(C(=O)c2ccc(C(F)(F)F)c(N3CCCCCC3=O)c2Cl)c(C)nn1C [Compound 058] | 10 | 10 | 10 | 10 | 0 | 1 (Level 1: below 5% growth control rate) | 1 (Level 1: below 5% growth control rate) | 4 (Level 4: above 50% growth control rate) | 10 | 10 | 4 (Level 4: above 50% growth control rate) | 1 (Level 1: below 5% growth control rate) | 0 | 2 (Level 2: 5%-20% growth control rate) |

Source: patent US11076594B2, “Pyrazolone compound or salt thereof, preparation method therefor, herbicide composition and use thereof” (QINGDAO KINGAGROOT CHEMICAL COMPOUNDS CO., LTD., priority 2015, dated 2021)
